Read-outs that look alike come from different tables or passages of the source.
Legend:
Assay type in all cases: biochemical
Pim3 kinase = Pim3 kinase (Homo sapiens, UniProt Q86V86); test: Pim3 ATP depletion assay; settings: read-out: PIM3 IC50
Pim1 kinase = Pim1 kinase (Homo sapiens, UniProt P11309); test: Pim1 ATP depletion assay;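 also: Luciferase-luciferin luminescence readout of residual ATP after PIM1 transfers phosphate to a peptide substrate, 40 µM ATP added, reaction run to roughly half ATP consumption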
Sequence of Pim1 kinase (P11309 whole entry): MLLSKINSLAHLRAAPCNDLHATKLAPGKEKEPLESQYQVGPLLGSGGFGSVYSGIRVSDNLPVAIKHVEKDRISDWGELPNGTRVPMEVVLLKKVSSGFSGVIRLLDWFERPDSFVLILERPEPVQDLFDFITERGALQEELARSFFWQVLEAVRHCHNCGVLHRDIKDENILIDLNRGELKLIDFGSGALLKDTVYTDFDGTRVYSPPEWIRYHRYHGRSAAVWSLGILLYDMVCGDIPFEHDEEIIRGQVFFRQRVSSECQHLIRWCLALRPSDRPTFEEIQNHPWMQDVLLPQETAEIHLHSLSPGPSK

Pim2 kinase = Pim2 kinase (Homo sapiens, UniProt Q9P1W9); test: Pim2 ATP depletion assay; settings: read-out: PIM2 IC50;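 also: Luciferase-based luminescent readout of ATP remaining after PIM2 phosphorylates a BAD peptide, final 5 nM enzyme, 4 µM ATP, 10 µM peptide, 2.5% DMSO, run to roughly half ATP consumption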
Sequence of Pim2 kinase (Q9P1W9 whole entry): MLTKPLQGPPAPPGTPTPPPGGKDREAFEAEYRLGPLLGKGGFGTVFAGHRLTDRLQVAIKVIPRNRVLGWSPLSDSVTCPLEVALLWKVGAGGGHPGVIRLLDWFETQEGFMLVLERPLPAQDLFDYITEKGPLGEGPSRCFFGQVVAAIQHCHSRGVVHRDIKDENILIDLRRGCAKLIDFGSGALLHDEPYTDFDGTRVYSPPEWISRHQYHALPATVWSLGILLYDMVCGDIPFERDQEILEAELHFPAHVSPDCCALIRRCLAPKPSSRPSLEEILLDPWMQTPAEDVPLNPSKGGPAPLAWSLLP

[1] = Pim1 ATP depletion assay, read-out: PIM1 IC50

Measured: IC50

Nc1ccc(-c2c(F)cccc2F)nc1C(=O)Nc1cnccc1N1C[C@@H](N)C[C@@H](O)C1 [Example 672, 3-Amino-6-(2,6-difluoro-phenyl)-pyridine-2-carboxylic acid (3-amino-5-hydroxy-3,4,5,6-tetrahydro-2H-[1,4′]bi-pyridinyl-3′-yl)-amide]
< 1000 nM: Pim3 kinase | Pim1 kinase; [1] | Pim2 kinase

CC1(N)CCCN(c2ccncc2NC(=O)c2nc(-c3c(F)cccc3F)ncc2N)C1 (stereo not drawn) [Example 673, 5-Amino-2-(2,6-difluoro-phenyl)-pyrimidine-4-carboxylic acid (3-amino-3-methyl-3,4,5,6-tetrahydro-2H-[1,4′]bipyridinyl-3′-yl)-amide]
< 1000 nM: Pim3 kinase | Pim1 kinase; [1] | Pim2 kinase

CC1(N)CCCN(c2ccncc2NC(=O)c2nc(-c3ccccc3F)ccc2N)C1 (stereo not drawn) [Example 674, 3-Amino-6-(2-fluoro-phenyl)-pyridine-2-carboxylic acid (3-amino-3-methyl-3,4,5,6-tetra-hydro-2H-[1,4′]bipyridinyl-3′-yl)-amide]
< 1000 nM: Pim3 kinase | Pim1 kinase; [1] | Pim2 kinase

CC(C)NC(=O)c1ccc(F)c(-c2ccc(N)c(C(=O)Nc3cnccc3N3CCCC(C)(N)C3)n2)c1 (stereo not drawn) [Example 675, 3-Amino-6-(2-fluoro-5-isopropylcarbamoyl-phenyl)-pyridine-2-carboxylic acid (3-amino-3-methyl-3,4,5,6-tetra-hydro-2H-[1,4′]bipyridinyl-3′-yl)-amide]
< 1000 nM: Pim3 kinase | Pim1 kinase; [1] | Pim2 kinase

CC1(N)CCCN(c2ccncc2NC(=O)c2nc(-c3ccccc3F)ncc2N)C1 (stereo not drawn) [Example 676, 5-Amino-2-(2-fluoro-phenyl)-pyrimidine-4-carboxylic acid (3-amino-3-methyl-3,4,5,6-tetrahydro-2H-[1,4′]bi-pyridinyl-3′-yl)-amide]
< 1000 nM: Pim3 kinase | Pim1 kinase; [1] | Pim2 kinase

CC(C)NC(=O)c1ccc(F)c(-c2ccc(N)c(C(=O)Nc3cnccc3N3C[C@@H](N)C[C@@H](O)C3)n2)c1 [Example 677, 3-Amino-6-(2-fluoro-5-isopropylcarbamoyl-phenyl)-pyridine-2-carboxylic acid (3-amino-5-hydroxy-3,4,5,6-tetra-hydro-2H-[1,4′]bipyridinyl-3′-yl)-amide]
< 1000 nM: Pim3 kinase | Pim1 kinase; [1] | Pim2 kinase

Nc1ccc(-c2ccccc2F)nc1C(=O)Nc1cnccc1N1C[C@@H](N)C[C@@H](O)C1 [Example 678, 3-Amino-6-(2-fluoro-phenyl)-pyridine-2-carboxylic acid (5-amino-3-hydroxy-3,4,5,6-tetra-hydro-2H-[1,4′]bipyridinyl-3′-yl)-amide]
< 1000 nM: Pim3 kinase | Pim1 kinase; [1] | Pim2 kinase

Nc1ccc(-c2c(F)cccc2F)nc1C(=O)Nc1cnccc1N1CC[C@H](O)[C@@H](N)C1 [Example 680, 3-Amino-6-(2,6-difluoro-phenyl)-pyridine-2-carboxylic acid (3-amino-4-hydroxy-3,4,5,6-tetrahydro-2H-[1,4′]bi-pyridinyl-3′-yl)-amide]
< 1000 nM: Pim3 kinase | Pim1 kinase | Pim2 kinase

N[C@@H]1CN(c2ccncc2NC(=O)c2ccc(F)c(-c3ccccc3)n2)CC[C@H]1O [Example 681, 5-Fluoro-6-phenyl-pyridine-2-carboxylic acid (3-amino-4-hydroxy-3,4,5,6-tetrahydro-2H-[1,4′]bipyridinyl-3′-yl)-amide]
< 1000 nM: Pim3 kinase | Pim1 kinase; [1] | Pim2 kinase

N[C@@H]1CN(c2ccncc2NC(=O)c2ccc(F)c(-c3ccccc3F)n2)CC[C@H]1O [Example 682, 5-Fluoro-6-(2-fluoro-phenyl)-pyridine-2-carboxylic acid (3-amino-4-hydroxy-3,4,5,6-tetra-hydro-2H-[1,4′]bipyridinyl-3′-yl)-amide]
< 1000 nM: Pim3 kinase | Pim1 kinase; [1] | Pim2 kinase

Reference: US20140249135A1, “PIM KINASE INHIBITORS AND METHODS OF THEIR USE” (NOVARTIS AG, priority 2007, published 2014)
